According to patent US8378117B2 (priority 2005, dated 2013):

Key:
[1] = target: T1, CB1 receptor (Homo sapiens, UniProt P21554); test: Binding assay for CB1 agonists or inverse agonists (SK-N-MC membranes, [3H]-CP-55,940); settings: for inhibition at 0.2 µM: read-out: CB1 receptor binding percent inhibition, test concentration 0.2 μM (footnote 2)
T1 construct: expressed in transfected cells
Outline: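 Radioligand displacement: [3H]-CP-55,940 at […], 90 min at 30° C, pH 7.5 Tris buffer with 0.5 mg/mL fatty-acid-free BSA, using semi-purified membranes of human-CB1-transfected SK-N-MC cells. Bound counts collected on GF/C filters, 10 uM WIN 55,212 for non-specific; IC50 from percent inhibition over several concentrations.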

[2] = target: T1, CB1 receptor; test: Modified binding assay, CB1 receptor in CHO cells, [3H]CP 55940; settings: [3H]CP 55940 0.5 nM, 120 minutes at 37° C.
Description: (§1) Additional receptor binding studies were performed with minor modifications as detailed below.
(§2) The human CB1 and CB2 receptors were stably expressed in CHO cells as described in Rinaldi-Carmona, M., Calandra, B., Shire, D., Bouaboula, M., Oustric, D., Barth, F., Casellas, P., Ferrara, P. and Le Fur, G. (1996) J. PharmacoL Exp. Ther., 278: 871-878 and Munro, S., Thomas, K. L. and Abu-Shaar, M. (1993) Nature, 365: 61-65, respectively. [^3H]CP 55940 (0.5 nM) was used as the radioligand for the CB1 receptor binding assay. [^3H]WIN 55212 (0.8 nM) was used as the radioligand for the CB2 receptor binding assay. Incubation was carried out for 120 minutes at 37° C.
(§3) The specific ligand binding to the receptors is defined as the difference between the total binding and the nonspecific binding determined in the presence of an excess of unlabelled ligand. The results are expressed as a percent of control specific binding ((measured specific binding/control specific binding)×100) obtained in the presence of the test compounds.
(§4) The IC50 values (concentration causing a half-maximal inhibition of control specific binding) were determined by non-linear regression analysis of the competition curves generated with mean replicate values using Hill equation curve fitting (where Y=specific binding, D=minimum specific binding, A=maximum specific binding, C=compound concentration, C50=IC50 and nH=slope factor): (Y=D+[(A−D)/(1+(C/C50)^nH)] CB1 and CB2 Receptor Binding Results
(§5) For compounds tested, an IC50 binding value was obtained from percent inhibition studies in which various test concentrations were used.

[3] = target: T2, CB2 receptor (Homo sapiens, UniProt P34972); test: Modified binding assay, CB2 receptor in CHO cells, [3H]WIN 55212; settings: [3H]WIN 55212 0.8 nM, 120 minutes at 37° C.
T2 construct: expressed in transfected cells
Description: as §1, §2, §3, §4, §5

[4] = target: T1, CB1 receptor; test: cell-based; settings: CB1 Receptor Functional Agonist EC50, SK-N-MC cells, forskolin induced β-galactosidase activity
Outline: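 Read-out is forskolin-driven CRE-β-gal reporter activity in stably transfected human-CB1 SK-N-MC cells, normalised to vehicle (100%); agonism lowers, inverse agonism raises signal. Values are EC50 (linear regression, multiple concentrations) or % change at one concentration.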

[5] = target: T2, CB2 receptor; test: Functional cell-based assay, CB2 receptor mediated change in CRE β-gal expression (SK-N-MC cells); settings: CB2 Receptor Functional Agonist EC50, forskolin induced β-galactosidase activity, SK-N-MC cells
Text: The CB1 and CB2 receptors are G-protein coupled receptors (GPCR), which influence cell function via the Gi-protein. These receptors modulate the activity of intracellular adenylate cyclase, which in turn produces the intracellular signal messenger cyclic-AMP (cAMP).
At baseline, or during non-ligand bound conditions, these receptors are constitutively active and tonically suppress adenylate cyclase activity. The binding of an agonist causes further receptor activation and produces additional suppression of adenylate cyclase activity. The binding of an inverse agonist inhibits the constitutive activity of the receptors and results in an increase in adenylate cyclase activity.
By monitoring intracellular adenylate cyclase activity, the ability of compounds to act as agonists or inverse agonists can be determined.
Test compounds were evaluated in SK-N-MC cells which, using standard transfection procedures, were stably transfected with human cDNA for pcDNA3-CRE β-gal and pcDNA3 CB1 receptor (human) or pcDNA3 CB2 receptor (human). By expressing CRE β-gal, the cells produced β-galactosidase in response to CRE promoter activation by cAMP. Cells expressing CRE β-gal and either the human CB1 or CB2 receptor will produce less β-galactosidase when treated with a CB1/CB2 agonist and will produce more β-galactosidase when treated with a CB1/CB2 inverse agonist.
The cells were grown in 96-well plates under standard cell culture conditions at 37° C. in a 5% CO2 atmosphere and culture media (wherein the media was supplemented with 2 mM L-glutamine, […] sodium pyruvate, 10% FBS (fetal bovine serum) and antibiotics).
For cells expressing CRE β-gal and the CB2 receptor, CB2 agonists reduced β-galactosidase activity in a dose-dependent manner and CB2 inverse agonists increase β-galactosidase activity in a dose-dependent manner.
The change in forskolin induced β-galactosidase activity was determined by setting a vehicle treated cell's activity value at 100% and expressing the β-galactosidase activity measured in a corresponding compound treated cell as a percent of the vehicle treated cell activity.
The EC50 value for functional activity for compounds tested was calculated by linear regression and was obtained from studies in which varying compound concentrations were used.

[6] = target: T1, CB1 receptor; test: Modified functional cell-based assay (Beta-Glo luminescence), CB1 receptor
Description: Additional functional activity studies were performed with minor modifications. Beta galactosidase activity was quantified using the luminescent Beta-Glo Assay System (Promega Corp. Madison, Wis.) and an Orion Microplate Luminometer (Berthold Detection Systems, Oak Ridge, Tenn.). The EC50 values were calculated using GraphPad Prism and a four parameter logistic equation.
The functional activity EC50 value for compounds tested (shown in Table 8) were obtained from studies in which varying compound concentrations were used. With the exception of Cpd 237 (n=3), one sample for each compound was tested.

[7] = Cannabinoid CB1 Receptor Binding IC50, calculated by linear regression from percent inhibition at various test concentrations
[8] = CB1 EC50 (Receptor Functional Activity), one sample per compound, Cpd 237 n=3

T2 sequence (P34972 whole entry): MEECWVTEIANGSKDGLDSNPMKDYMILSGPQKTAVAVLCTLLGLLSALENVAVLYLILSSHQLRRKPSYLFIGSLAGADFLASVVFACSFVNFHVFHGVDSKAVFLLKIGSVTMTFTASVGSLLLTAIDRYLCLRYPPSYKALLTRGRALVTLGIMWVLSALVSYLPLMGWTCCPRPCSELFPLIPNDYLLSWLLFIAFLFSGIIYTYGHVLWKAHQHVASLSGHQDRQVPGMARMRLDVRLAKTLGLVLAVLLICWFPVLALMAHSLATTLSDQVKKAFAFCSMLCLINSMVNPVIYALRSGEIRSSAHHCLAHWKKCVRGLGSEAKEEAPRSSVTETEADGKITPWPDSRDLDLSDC
T1 sequence (P21554 whole entry): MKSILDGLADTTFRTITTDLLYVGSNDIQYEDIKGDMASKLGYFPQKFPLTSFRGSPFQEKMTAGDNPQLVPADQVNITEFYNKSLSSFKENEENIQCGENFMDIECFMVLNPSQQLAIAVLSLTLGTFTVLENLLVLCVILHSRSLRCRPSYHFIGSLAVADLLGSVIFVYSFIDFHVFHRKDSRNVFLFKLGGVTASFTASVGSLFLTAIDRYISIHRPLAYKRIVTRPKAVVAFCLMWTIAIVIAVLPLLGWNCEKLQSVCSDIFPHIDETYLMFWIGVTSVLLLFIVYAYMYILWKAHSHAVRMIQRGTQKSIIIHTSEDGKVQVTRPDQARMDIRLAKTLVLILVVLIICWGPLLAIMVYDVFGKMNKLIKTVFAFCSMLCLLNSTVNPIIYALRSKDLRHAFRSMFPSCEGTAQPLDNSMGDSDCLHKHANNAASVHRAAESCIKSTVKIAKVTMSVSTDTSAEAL

Compound | IC50 [1, 7] | IC50 [2] | IC50 [3] | EC50 [4] | EC50 [5] | EC50 [6, 8] | IC50 ([1]; read-out: Cannabinoid CB1 Receptor Binding IC50, calculated by linear regression from percent inhibition at various test concentrations) | EC50 ([6]; read-out: CB1 EC50 (Receptor Functional Activity), one sample per compound, Cpd 237 n=3) | inhibition at 0.2 µM [1]
O=C(N[C@H](CO)c1ccccc1)c1n[nH]c2c1CCCCC2Cc1cccc(Cl)c1 (single isomer, unassigned) [Cpd 230, (8R*)-8-(3-chloro-benzyl)-1,4,5,6,7,8-hexahydro-cycloheptapyrazole-3-carboxylic acid [(1S)-2-hydroxy-1-phenyl-ethyl]-amide] | 0.3 µM | 0.37 µM | 0.092 µM | 1 µM | 0.002 µM | > 1 µM | – | – | –
O=C(N[C@H](CO)c1ccccc1)c1n[nH]c2c1CCCCC2Cc1cccc(Cl)c1 (single isomer, unassigned) [Cpd 231, (8S*)-8-(3-chloro-benzyl)-1,4,5,6,7,8-hexahydro-cycloheptapyrazole-3-carboxylic acid [(1S)-2-hydroxy-1-phenyl-ethyl]-amide] | – | > 3 µM | 1.8 µM | > 5 µM | 0.012 µM | – | 0.3 µM | > 1 µM | –
C[C@H](NS(=O)(=O)/C=C/c1n[nH]c2c1CCCCC2Cc1cccc(F)c1)c1ccccc1 (single isomer, unassigned) [Cpd 232, (2E)-2-[(8R*)-8-(3-fluoro-benzyl)-1,4,5,6,7,8-hexahydro-cycloheptapyrazol-3-yl]-ethenesulfonic acid [(1S)-1-phenyl-ethyl]-amide] | 0.3 µM | – | – | > 5 µM | 0.009 µM | ~3.2 µM | – | – | 0%
C[C@H](NS(=O)(=O)/C=C/c1n[nH]c2c1CCCC/C2=C\c1ccc(Cl)cc1)c1ccccc1 [Cpd 237, (2E,8E)-2-[8-(4-chloro-benzylidene)-1,4,5,6,7,8-hexahydro-cycloheptapyrazol-3-yl]-ethenesulfonic acid [(1S)-1-phenyl-ethyl]-amide] | 0.3 µM | > 3 µM | 0.69 µM | 1.7 µM | 0.009 µM | 3.6 µM | – | – | 0%
